# Test results published in patent US9434763B2, “Derivatives of pyridinone as inhibitors for tissue transglutaminase” (ZEDIRA GMBH, priority 2012, dated 2016).
# Target: T1, TG2 in tissue sections (Mus musculus, UniProt P21981)
# T1 construct: from tissue; host or cells: mouse small intestine cryosections (mucosa)
# T1 sequence (P21981 1-686): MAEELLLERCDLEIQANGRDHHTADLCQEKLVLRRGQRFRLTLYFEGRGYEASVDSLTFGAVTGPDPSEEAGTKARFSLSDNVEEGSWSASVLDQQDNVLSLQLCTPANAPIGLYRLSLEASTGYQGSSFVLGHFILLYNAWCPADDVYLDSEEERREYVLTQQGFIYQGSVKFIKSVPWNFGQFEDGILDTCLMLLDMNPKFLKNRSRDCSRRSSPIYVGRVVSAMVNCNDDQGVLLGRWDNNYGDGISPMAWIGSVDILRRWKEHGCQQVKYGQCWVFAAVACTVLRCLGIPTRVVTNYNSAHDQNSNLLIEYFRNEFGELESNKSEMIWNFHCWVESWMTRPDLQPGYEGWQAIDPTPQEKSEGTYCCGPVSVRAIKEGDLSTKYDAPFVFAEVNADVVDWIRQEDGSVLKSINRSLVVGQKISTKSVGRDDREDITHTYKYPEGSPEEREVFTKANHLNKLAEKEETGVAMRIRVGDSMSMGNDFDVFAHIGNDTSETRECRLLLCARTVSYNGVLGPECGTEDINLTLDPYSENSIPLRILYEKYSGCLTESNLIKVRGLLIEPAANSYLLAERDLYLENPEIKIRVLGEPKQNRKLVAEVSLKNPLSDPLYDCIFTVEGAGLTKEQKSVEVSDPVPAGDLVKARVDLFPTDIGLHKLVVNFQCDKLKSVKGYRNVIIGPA
# Test: Ex vivo testing of inhibitors on small intestine sections of a control mouse
# Conditions: pre-incubated with 0.2 mg/ml and 0.02 mg/ml inhibitor
# Protocol: After a washing step (1% BSA in PBS buffer), incubation was carried out with 4 μg/ml of the TG2 substrate biotinyl-TVQQEL (Zedira, product number B001) in the presence of 5 mM CaCl2 for 2 h at room temperature. The reaction was stopped with 25 mM EDTA. After one further washing, blocking, and washing step, the primary antibody against human TG2 was added (Zedira, product number A018, 25 μg/ml) and incubated for one hour at room temperature. After four wash steps, streptavidin-FITC (2 μg/ml, streptavidin-fluorescein-isothiocyanate) and Cy3-labeled goat anti-rabbit IgG antibodies (22.5 μg/ml) were added and incubated in the dark at room temperature for 40 min. TG2 was thus visible in the fluorescence microscope as red color (Cy3), whereas biotinyl-TVQQEL incorporated by transglutaminase activity was visualized by green staining (FITC). The superposition of both images led to a yellow color when active transglutaminase was present.
# […] Then the staining protocol as described in example 10 was carried out. In the control sections with 0.0 mg/ml inhibitor yellow staining in the mucosa of the small intestinal was detected, which is due to active TG2.
row,Structure (SMILES),TG2 inhibition in sections at the higher concentrations of inhibitor
1,"CCC(CC)CNC(=O)Cn1cccc(NC(=O)[C@H](CC/C=C/C(=O)OC)NC(=O)c2cncn2C)c1=O [A63, (S,E)-Methyl 7-(1-(2-(2-ethylbutylamino)-2-oxoethyl)-2-oxo-1,2-dihydropyridin-3-ylamino)-6-(1-methyl-1H-imidazole-5-carboxamido)-7-oxohept-2-enoate]",completely inhibited
2,"CC[C@@H](C)[C@H](NC(=O)Cn1cccc(NC(=O)[C@H](CC/C=C/C(=O)OC)NC(=O)c2ccccc2)c1=O)C(=O)O [A61, (2S,3R)-2-(2-(3-((S,E)-2-benzamido-7-methoxy-7-oxohept-5-enamido)-2-oxopyridin-1(2H)-yl)acetamido)-3-methylpentanoic acid]",completely inhibited
